One assay deals with T1, MstH (Aspergillus niger, UniProt A5ABZ0).
T1 construct: gene An15g03940; also called pRS426H7), expressed in S. cerevisiae EBY.VW4000 hexose transporter null mutant, whole-cell uptake
T1 sequence (A5ABZ0 1-527): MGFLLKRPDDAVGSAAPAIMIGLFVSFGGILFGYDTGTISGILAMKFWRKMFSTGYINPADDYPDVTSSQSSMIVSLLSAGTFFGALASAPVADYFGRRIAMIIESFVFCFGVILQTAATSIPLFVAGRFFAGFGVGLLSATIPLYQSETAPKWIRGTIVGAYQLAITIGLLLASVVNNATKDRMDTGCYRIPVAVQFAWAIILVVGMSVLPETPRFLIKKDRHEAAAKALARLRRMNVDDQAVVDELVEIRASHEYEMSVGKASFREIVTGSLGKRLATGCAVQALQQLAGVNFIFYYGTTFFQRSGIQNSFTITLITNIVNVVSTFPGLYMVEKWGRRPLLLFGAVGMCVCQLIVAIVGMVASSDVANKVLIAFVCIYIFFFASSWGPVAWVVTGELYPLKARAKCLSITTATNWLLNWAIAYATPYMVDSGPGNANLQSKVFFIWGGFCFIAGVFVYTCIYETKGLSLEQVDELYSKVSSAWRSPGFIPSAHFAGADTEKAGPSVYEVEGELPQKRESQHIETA
In words: competition of […]-glucose uptake in yeast cells. The following applies: read-out: % inhibition at 10 mM. It is filed as cell-based.

For a further assay, the target named is T2, MstG (Aspergillus niger, UniProt A2QKT1).
T2 construct: gene An05g01290; also called pRS426H7), expressed in S. cerevisiae EBY.VW4000 hexose transporter null mutant, whole-cell uptake
T2 sequence (A2QKT1 1-542): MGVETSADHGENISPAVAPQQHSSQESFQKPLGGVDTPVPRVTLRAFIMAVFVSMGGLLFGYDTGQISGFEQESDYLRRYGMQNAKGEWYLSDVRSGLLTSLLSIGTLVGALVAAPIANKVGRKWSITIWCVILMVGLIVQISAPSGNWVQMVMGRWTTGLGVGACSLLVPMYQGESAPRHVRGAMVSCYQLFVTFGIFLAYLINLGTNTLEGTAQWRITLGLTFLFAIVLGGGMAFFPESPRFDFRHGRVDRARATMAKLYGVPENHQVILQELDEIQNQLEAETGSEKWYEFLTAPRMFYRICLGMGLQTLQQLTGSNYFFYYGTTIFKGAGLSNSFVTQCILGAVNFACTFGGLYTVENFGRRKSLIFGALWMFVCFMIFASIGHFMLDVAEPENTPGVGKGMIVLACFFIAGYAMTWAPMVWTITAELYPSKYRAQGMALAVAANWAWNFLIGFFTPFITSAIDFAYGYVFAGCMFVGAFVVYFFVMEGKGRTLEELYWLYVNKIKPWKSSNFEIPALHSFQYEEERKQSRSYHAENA
The assay is described as follows: competition of […]-glucose uptake in yeast cells. It is filed as cell-based. To be noted: read-out: % inhibition at 10 mM.

In general, inhibition refers to the relative decrease from the control value, in per cent. In the case of `OC[C@H]1OC(O)[C@@H](O)[C@@H](O)[C@@H]1O` (some centres unmarked) [mannose], on MstH, the inhibition at 10000 µM stood at 70%.

Turning to `OC1OC[C@@H](O)[C@H](O)[C@H]1O` (some centres unmarked) [xylose], on MstG, the inhibition at 10000 µM was 25%.

Consider `OC[C@H]1OC(O)[C@H](O)[C@@H](O)[C@H]1O` (some centres unmarked) [galactose], for which, at MstG, the inhibition at 10000 µM was 39%.

`OCC1(O)OC[C@@H](O)[C@@H](O)[C@@H]1O` (some centres unmarked) [fructose]: the inhibition at 10000 µM amounted to 50% at MstH and 29% on MstG.

(Values after paper PMC4574540, “Aspergillus niger membrane-associated proteome analysis for the identification of glucose transporters” (Biotechnology for Biofuels, 2015).)
